This is an account of results in patent publication US11725036B2, “Modified lipidated relaxin B chain peptides and their therapeutic use” (Sanofi, priority 2018, dated 2023).

A word on the EC50: it is the concentration at which the effect is half-maximal. High values mean a need for much substance, low ones an effect from little substance. What is called Emax is the maximal effect, on the per cent scale that the assay sets.

Starred links: 1 amine or outer side, 2 acyl side, 3 side chain; linkers in the order of their positions; H or OH if unused. Non-standard residues stand in square brackets, D forms with d. Residues, ends and D or L forms follow the SMILES beside them. Groups on a side chain read outwards from the residue. *: point of attachment. X5 = CCCCCCCCCCCCCCCC(=O)N[C@@H](CCC(=O)N[C@@H](CCC(=O)N[C@@H](CCC(=O)NCCCOCCOCCOCCCNC(=O)CCC(=O)NCCCOCCOCCOCCCNC(=O)CCC(=O)NCCCOCCOCCOCCCNC(=O)CCC(=O)NCCCOCCOCCOCCCN*)C(=O)O)C(=O)O)C(=O)O; X1 = CCCCCCCCCCCCCCCC(=O)N[C@@H](CCC(=O)N[C@@H](CCC(=O)N[C@@H](CCC(=O)NCCCOCCOCCOCCCNC(=O)CCC(=O)NCCCOCCOCCOCCCNC(=O)CCC(=O)NCCCOCCOCCOCCCN*)C(=O)O)C(=O)O)C(=O)O; Trp(5-Cl) = N[C@@H](Cc1c[nH]c2ccc(Cl)cc12)C(=O)O; Suc = O=C(CCC(=O)[*:2])[*:1]; αMeK = C[C@](N)(CCCCN)C(=O)O; Aib = CC(C)(N)C(=O)O

The target of the test is T1, RXFP1 (Homo sapiens, UniProt Q9HBX9).
T1 construct: OVCAR5 cells expressing endogenous RXFP1; endogenous in cells; host or cells: OVCAR5
T1 sequence (Q9HBX9 1-757): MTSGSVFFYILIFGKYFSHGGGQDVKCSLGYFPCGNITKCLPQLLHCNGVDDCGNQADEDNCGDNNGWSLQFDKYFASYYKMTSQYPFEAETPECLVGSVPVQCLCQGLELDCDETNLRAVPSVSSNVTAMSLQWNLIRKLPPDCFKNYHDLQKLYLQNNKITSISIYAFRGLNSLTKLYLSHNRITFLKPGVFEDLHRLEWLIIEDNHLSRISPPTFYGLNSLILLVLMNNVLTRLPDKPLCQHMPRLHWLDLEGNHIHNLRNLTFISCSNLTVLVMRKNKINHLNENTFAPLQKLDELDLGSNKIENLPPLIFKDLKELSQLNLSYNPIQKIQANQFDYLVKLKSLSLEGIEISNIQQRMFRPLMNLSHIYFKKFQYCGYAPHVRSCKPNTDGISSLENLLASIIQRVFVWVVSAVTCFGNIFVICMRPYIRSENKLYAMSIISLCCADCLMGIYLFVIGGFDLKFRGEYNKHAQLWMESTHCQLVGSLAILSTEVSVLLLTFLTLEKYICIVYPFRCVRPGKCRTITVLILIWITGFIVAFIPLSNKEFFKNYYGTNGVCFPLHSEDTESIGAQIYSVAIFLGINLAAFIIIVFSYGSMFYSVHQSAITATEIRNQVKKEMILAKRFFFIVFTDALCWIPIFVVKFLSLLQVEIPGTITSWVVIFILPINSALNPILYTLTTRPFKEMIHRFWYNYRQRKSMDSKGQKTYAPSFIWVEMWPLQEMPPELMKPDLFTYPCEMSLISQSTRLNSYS
The test can be described thus: OVCAR5 cAMP assay (HTRF). The test is classed as cell-based. As to conditions: for EC50: OVCAR 5 cells expressing endogenous RXFP1, cAMP readout; for Emax: OVCAR 5 cells, maximal cAMP relative to H2-relaxin. The method, boiled down: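 Peptide agonism measured as intracellular cAMP (HTRF) after 30 min at 37° C in serum-free medium, following 40 min 1 mM IBMX preincubation of OVCAR5 cells. Nonlinear regression gave EC50; Emax % = 100 × compound maximal cAMP / H2-relaxin maximal cAMP.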
A general note: Cyclic AMP is a second messenger, typically raised through Gs and lowered through Gi signalling.

The compound `CCCCCCCCCCCCCCCC(=O)N[C@@H](CCC(=O)N[C@@H](CCC(=O)N[C@@H](CCC(=O)NCCCOCCOCCOCCCNC(=O)CCC(=O)NCCCOCCOCCOCCCNC(=O)CCC(=O)NCCCOCCOCCOCCCNC(=O)CCC(=O)NCCCOCCOCCOCCCNC(=O)CCC(=O)NCCCC[C@H](NC(=O)CNC(=O)[C@H](CCC(=O)O)NC(=O)C(C)(C)NC(=O)C(C)(C)NC(=O)[C@@H](NC(=O)[C@H](CCCCNC(C)=O)NC(=O)[C@H](C)NC(=O)[C@H](CCCNC(=N)N)NC(=O)[C@@H](NC(=O)[C@H](CCCCN)NC(=O)[C@H](CCC(=O)O)NC(=O)[C@H](CCCNC(=N)N)NC(=O)CNC(=O)[C@H](CCC(=O)O)NC(=O)[C@H](CC(C)C)NC(C)=O)C(C)C)[C@@H](C)CC)C(=O)N[C@@H](CO)C(=O)N[C@H](C(=O)N[C@@H](Cc1ccccc1)C(=O)N[C@@H](CO)C(=O)N[C@@](C)(CCCCN)C(=O)N[C@@H](CCCNC(=N)N)C(=O)N[C@@H](C)C(=O)N[C@@H](CCCCNC(C)=O)C(N)=O)[C@@H](C)O)C(=O)O)C(=O)O)C(=O)O` [compound 78] (Ac-LEGREKVRAK(Ac)I[Aib][Aib]EGK([Suc-X5])STFS[αMeK]RAK(Ac)-NH2) had an EC50 of 0.18 nM and an Emax of 99%.

Turning to `CCCCCCCCCCCCCCCC(=O)N[C@@H](CCC(=O)N[C@@H](CCC(=O)N[C@@H](CCC(=O)NCCCOCCOCCOCCCNC(=O)CCC(=O)NCCCOCCOCCOCCCNC(=O)CCC(=O)NCCCOCCOCCOCCCNC(=O)CCC(=O)NCCCC[C@H](NC(=O)CNC(=O)[C@H](CCC(=O)O)NC(=O)C(C)(C)NC(=O)C(C)(C)NC(=O)[C@@H](NC(=O)[C@H](CCCCNC(C)=O)NC(=O)[C@H](C)NC(=O)[C@H](CCCNC(=N)N)NC(=O)[C@@H](NC(=O)[C@H](CCCCN)NC(=O)[C@H](CCC(=O)O)NC(=O)[C@H](CCCNC(=N)N)NC(=O)CNC(=O)[C@H](CCC(=O)O)NC(=O)[C@H](CC(C)C)NC(C)=O)C(C)C)[C@@H](C)CC)C(=O)N[C@@H](CO)C(=O)N[C@@H](CCCCN)C(=O)N[C@@H](Cc1ccccc1)C(=O)N[C@@H](CO)C(=O)NC(C)(C)C(=O)N[C@@H](CCCNC(=N)N)C(=O)N[C@@H](CCCCN)C(=O)N[C@@H](CCCCNC(C)=O)C(N)=O)C(=O)O)C(=O)O)C(=O)O` [compound 79] (Ac-LEGREKVRAK(Ac)I[Aib][Aib]EGK([Suc-X1])SKFS[Aib]RKK(Ac)-NH2), the EC50 turned out to be 0.45 nM and the maximum response (Emax) is 95%. For `CCCCCCCCCCCCCCCC(=O)N[C@@H](CCC(=O)N[C@@H](CCC(=O)N[C@@H](CCC(=O)NCCCOCCOCCOCCCNC(=O)CCC(=O)NCCCOCCOCCOCCCNC(=O)CCC(=O)NCCCOCCOCCOCCCNC(=O)CCC(=O)NCCCC[C@H](NC(=O)CNC(=O)[C@H](CCC(=O)O)NC(=O)C(C)(C)NC(=O)C(C)(C)NC(=O)[C@@H](NC(=O)[C@H](CCCCNC(C)=O)NC(=O)[C@H](C)NC(=O)[C@H](CCCNC(=N)N)NC(=O)[C@@H](NC(=O)[C@H](CCCNC(=N)N)NC(=O)[C@H](CCC(=O)O)NC(=O)[C@H](CCCNC(=N)N)NC(=O)CNC(=O)[C@H](CCC(=O)O)NC(=O)[C@H](CC(C)C)NC(C)=O)C(C)C)[C@@H](C)CC)C(=O)N[C@@H](CO)C(=O)N[C@H](C(=O)N[C@@H](Cc1c[nH]c2ccc(Cl)cc12)C(=O)N[C@@H](CO)C(=O)NC(C)(C)C(=O)N[C@@H](CCCNC(=N)N)C(=O)N[C@@H](CCCNC(=N)N)C(=O)N[C@@H](CCCCNC(C)=O)C(N)=O)[C@@H](C)O)C(=O)O)C(=O)O)C(=O)O` [compound 80] (Ac-LEGRERVRAK(Ac)I[Aib][Aib]EGK([Suc-X1])ST[Trp(5-Cl)]S[Aib]RRK(Ac)-NH2) the same measures were 0.63 nM and 93%. For `CCCCCCCCCCCCCCCC(=O)N[C@@H](CCC(=O)N[C@@H](CCC(=O)N[C@@H](CCC(=O)NCCCOCCOCCOCCCNC(=O)CCC(=O)NCCCOCCOCCOCCCNC(=O)CCC(=O)NCCCOCCOCCOCCCNC(=O)CCC(=O)NCCCC[C@H](NC(=O)CNC(=O)[C@H](CCC(=O)O)NC(=O)C(C)(C)NC(=O)C(C)(C)NC(=O)[C@@H](NC(=O)[C@H](CCCCNC(C)=O)NC(=O)[C@H](C)NC(=O)[C@H](CCCNC(=N)N)NC(=O)[C@@H](NC(=O)[C@H](CCCCN)NC(=O)[C@H](CCC(=O)O)NC(=O)[C@H](CCCNC(=N)N)NC(=O)CNC(=O)[C@H](CCC(=O)O)NC(=O)[C@H](CCCCNC(C)=O)NC(C)=O)C(C)C)[C@@H](C)CC)C(=O)N[C@@H](CO)C(=O)N[C@H](C(=O)N[C@@H](Cc1ccccc1)C(=O)N[C@@H](CO)C(=O)N[C@@](C)(CCCCN)C(=O)N[C@@H](CCCNC(=N)N)C(=O)N[C@@H](C)C(=O)N[C@@H](CCCCNC(C)=O)C(N)=O)[C@@H](C)O)C(=O)O)C(=O)O)C(=O)O` [compound 81] (Ac-K(Ac)EGREKVRAK(Ac)I[Aib][Aib]EGK([Suc-X1])STFS[αMeK]RAK(Ac)-NH2) the same measures were 0.16 nM and 98%. As for `CCCCCCCCCCCCCCCC(=O)N[C@@H](CCC(=O)N[C@@H](CCC(=O)N[C@@H](CCC(=O)NCCCOCCOCCOCCCNC(=O)CCC(=O)NCCCOCCOCCOCCCNC(=O)CCC(=O)NCCCOCCOCCOCCCNC(=O)CCC(=O)NCCCC[C@H](NC(=O)CNC(=O)[C@H](CCC(=O)O)NC(=O)C(C)(C)NC(=O)C(C)(C)NC(=O)[C@@H](NC(=O)[C@H](CCCCNC(C)=O)NC(=O)C(C)(C)NC(=O)[C@H](CCCNC(=N)N)NC(=O)[C@@H](NC(=O)[C@H](CCCCN)NC(=O)[C@H](CCC(=O)O)NC(=O)[C@H](CCCNC(=N)N)NC(=O)CNC(=O)[C@H](CCC(=O)O)NC(=O)[C@H](CC(C)C)NC(C)=O)C(C)C)[C@@H](C)CC)C(=O)N[C@@H](CO)C(=O)N[C@H](C(=O)N[C@@H](Cc1c[nH]c2ccccc12)C(=O)N[C@@H](CO)C(=O)NC(C)(C)C(=O)N[C@@H](CCCNC(=N)N)C(=O)N[C@@H](CCCCN)C(=O)N[C@@H](CCCCNC(C)=O)C(N)=O)[C@@H](C)O)C(=O)O)C(=O)O)C(=O)O` [compound 82] (Ac-LEGREKVR[Aib]K(Ac)I[Aib][Aib]EGK([Suc-X1])STWS[Aib]RKK(Ac)-NH2), the Emax came to 95%. Compound `CCCCCCCCCCCCCCCC(=O)N[C@@H](CCC(=O)N[C@@H](CCC(=O)N[C@@H](CCC(=O)NCCCOCCOCCOCCCNC(=O)CCC(=O)NCCCOCCOCCOCCCNC(=O)CCC(=O)NCCCOCCOCCOCCCNC(=O)CCC(=O)NCCCC[C@H](NC(=O)CNC(=O)[C@H](CCC(=O)O)NC(=O)C(C)(C)NC(=O)C(C)(C)NC(=O)[C@@H](NC(=O)[C@H](CCCCNC(C)=O)NC(=O)[C@H](C)NC(=O)[C@H](CCCNC(=N)N)NC(=O)[C@@H](NC(=O)[C@H](CCCCN)NC(=O)[C@H](CCC(=O)O)NC(=O)[C@H](CCCNC(=N)N)NC(=O)CNC(=O)[C@H](CCC(=O)O)NC(=O)[C@H](CC(C)C)NC(C)=O)C(C)C)[C@@H](C)CC)C(=O)N[C@@H](CO)C(=O)N[C@@H](CCCCN)C(=O)N[C@@H](Cc1c[nH]c2ccccc12)C(=O)N[C@@H](CO)C(=O)NC(C)(C)C(=O)N[C@@H](CCCNC(=N)N)C(=O)N[C@@H](CCCCN)C(=O)N[C@@H](CCCCNC(C)=O)C(N)=O)C(=O)O)C(=O)O)C(=O)O` [compound 83] (Ac-LEGREKVRAK(Ac)I[Aib][Aib]EGK([Suc-X1])SKWS[Aib]RKK(Ac)-NH2) had a half-maximal effective concentration (EC50) of 0.25 nM and an Emax of 94%.

Compound `CCCCCCCCCCCCCCCC(=O)N[C@@H](CCC(=O)N[C@@H](CCC(=O)N[C@@H](CCC(=O)NCCCOCCOCCOCCCNC(=O)CCC(=O)NCCCOCCOCCOCCCNC(=O)CCC(=O)NCCCOCCOCCOCCCNC(=O)CCC(=O)NCCCC[C@H](NC(=O)CNC(=O)[C@H](CCC(=O)O)NC(=O)[C@@H](NC(=O)C(C)(C)NC(=O)[C@@H](NC(=O)[C@H](CCCCNC(C)=O)NC(=O)[C@H](C)NC(=O)[C@H](CCCNC(=N)N)NC(=O)[C@@H](NC(=O)[C@H](CCCCN)NC(=O)[C@H](CCC(=O)O)NC(=O)[C@H](CCCNC(=N)N)NC(=O)CNC(=O)[C@H](CCC(=O)O)NC(=O)[C@H](CC(C)C)NC(C)=O)C(C)C)[C@@H](C)CC)[C@@H](C)CC)C(=O)N[C@@H](CO)C(=O)N[C@H](C(=O)N[C@@H](Cc1ccccc1)C(=O)N[C@@H](CO)C(=O)N[C@@](C)(CCCCN)C(=O)N[C@@H](CCCNC(=N)N)C(=O)N[C@@H](C)C(=O)N[C@@H](CCCCNC(C)=O)C(N)=O)[C@@H](C)O)C(=O)O)C(=O)O)C(=O)O` [compound 84] (Ac-LEGREKVRAK(Ac)I[Aib]IEGK([Suc-X1])STFS[αMeK]RAK(Ac)-NH2) gave an EC50 of 0.1 nM and an Emax of 95%.
